Test results: paper PMC7048748, “Anxiolytic Drug FGIN-1-27 Ameliorates Autoimmunity by Metabolic Reprogramming of Pathogenic Th17 Cells” (Scientific Reports, 2020)

Tested on: Th17 cells
Experiment: Lipidomics of Th17 cells
Format: cell-based, mouse
Set-up: key to nCE(16:0) / nCE(18:2) / nDCER(22:0) / nDCER[FA14:0] / nFFA(12:0) / nFFA(14:1) / nFFA(18:4) / nCE(22:0) / nCE(22:6) / nCE(24:1) / nCE[FA14:1] / nCE(12:0) / nCE[FA16:0] / nCE[FA17:0] / nCE[FA18:2] / nCE[FA22:6]: mole percent of each fatty acid within its lipid class; key to nDCER[FA18:1]: mole percent of fatty acid within lipid class
Procedure: Specific cholesterol precursors like desmosterol and oxysterols, such as 7β, 27-dihydroxycholesterol (7β, 27-OHC), have been identified as ligands for RORγt[21],[22] and shown to modulate Th17 differentiation. […] Next, we extended our studies to lipid metabolites and profiled the lipidome of Th17 cells treated with DMSO or FGIN-1-27.
(a) Quantitation of cholesterol esters, triacylglycerols (TAGs), phosphatidylethanolamine (PE) and phosphatidylcholine (PC) in Th17 cells 72 hours after treatment with FGIN-1-27. The error bars represent SD. (b) Heat map showing fatty acid composition (mole percent) for different lipid classes after treatment with FGIN-1-27. (c) Pie charts showing proportions of different fatty acid classes namely PUFAs, MUFAs, ODD and SFAs within the cholesterol esters. (d) Transcript analysis for CD5L 72 hours post treatment with FGIN-1-27. The error bars represent SD.
Th17 cells were differentiated from naïve purified CD4 T cells and treated with either FGIN-1-27 (10 µM) or DMSO during polarization. 10 million cells/treatment were harvested and snap frozen. […] The extracts were concentrated under nitrogen and reconstituted in 0.25 mL of dichloromethane:methanol (50:50) containing 10 mM ammonium acetate. The extracts were placed in vials for infusion-MS analyses, performed on a SelexION equipped Sciex 5500 QTRAP using both positive and negative mode electrospray. Each sample was subjected to 2 analyses, with IMS-MS conditions optimized for lipid classes monitored in each analysis. The 5500 QTRAP was operated in MRM mode to monitor the transitions for over 1,100 lipids from up to 14 lipid classes. Individual lipid species were quantified based on the ratio of signal intensity for target compounds to the signal intensity for an assigned internal standard of known concentration. Lipid class concentrations were calculated from the sum of all molecular species within a class, and fatty acid compositions were determined by calculating the proportion of individual fatty acids within each class.

SMILES: CCCCCCN(CCCCCC)C(=O)Cc1c(-c2ccc(F)cc2)[nH]c2ccccc12 [FGIN-1-27, N, N-di-n-hexyl 2-(4-fluorophenyl) indole-3-acetamide]
- nDAG(15:0/18:2) (Th17 cells, 10 µM): 0.0745
- nDAG(16:0/16:0) (Th17 cells, 10 µM): 19.5066
- nDAG(16:0/16:1) (Th17 cells, 10 µM): 3.679
- nDAG(16:0/18:0) (Th17 cells, 10 µM): 17.7482
- nDAG(16:0/18:1) (Th17 cells, 10 µM): 17.8834
- nDAG(16:0/18:2) (Th17 cells, 10 µM): 1.3367
- nDAG(16:0/18:3) (Th17 cells, 10 µM): 0.06918
- nDAG(16:0/20:3) (Th17 cells, 10 µM): 2.168
- nDAG(16:0/20:4) (Th17 cells, 10 µM): 0.4462
- nDAG(16:0/20:5) (Th17 cells, 10 µM): 0.02527
- nDAG(16:0/22:5) (Th17 cells, 10 µM): 0.2343
- nDAG(16:0/22:6) (Th17 cells, 10 µM): 0.3639
- nDAG(16:1/16:1) (Th17 cells, 10 µM): 0.2383
- nDAG(16:1/18:0) (Th17 cells, 10 µM): 0.9172
- nDAG(16:1/18:1) (Th17 cells, 10 µM): 1.986
- nDAG(16:1/18:2) (Th17 cells, 10 µM): 0.2498
- nDAG(16:1/18:3) (Th17 cells, 10 µM): 0.05893
- nDAG(16:1/20:0) (Th17 cells, 10 µM): 0.281
- nDAG(16:1/20:2) (Th17 cells, 10 µM): 0.05259
- nDAG(16:1/20:4) (Th17 cells, 10 µM): 0.0501
- nDAG(16:1/22:6) (Th17 cells, 10 µM): 0.1384
- nDAG(18:0/18:1) (Th17 cells, 10 µM): 4.793
- nDAG(18:0/18:2) (Th17 cells, 10 µM): 1.2841
- nDAG(18:0/18:3) (Th17 cells, 10 µM): 0.04099
- nDAG(18:0/22:6) (Th17 cells, 10 µM): 0.5166
- nDAG(18:1/18:1) (Th17 cells, 10 µM): 5.728
- nDAG(18:1/18:2) (Th17 cells, 10 µM): 1.367
- nDAG(18:1/20:1) (Th17 cells, 10 µM): 0.6608
- nDAG(18:1/20:2) (Th17 cells, 10 µM): 0.298
- nDAG(18:1/20:3) (Th17 cells, 10 µM): 0.3254
- nDAG(18:1/20:4) (Th17 cells, 10 µM): 0.3507
- nDAG(18:1/20:5) (Th17 cells, 10 µM): 0.04364
- nDAG(18:1/22:4) (Th17 cells, 10 µM): 0.1472
- nDAG(18:1/22:5) (Th17 cells, 10 µM): 0.2687
- nDAG(18:1/22:6) (Th17 cells, 10 µM): 0.3639
- nDAG(18:2/18:3) (Th17 cells, 10 µM): 0.01794
- nDAG(18:2/20:3) (Th17 cells, 10 µM): 0.05124
- nDAG(18:2/20:4) (Th17 cells, 10 µM): 0.02818
- nDAG(18:2/20:5) (Th17 cells, 10 µM): 0.009187
- nDAG(18:2/22:4) (Th17 cells, 10 µM): 0.01566
- nDAG(18:2/22:5) (Th17 cells, 10 µM): 0.004594
- nDAG(18:2/22:6) (Th17 cells, 10 µM): 0.04424
- nDAG(20:0/20:0) (Th17 cells, 10 µM): 0.1788
- nDAG[FA12:0] (Th17 cells, 10 µM): 0.4433
- nDAG[FA14:0] (Th17 cells, 10 µM): 7.546
- nDAG[FA14:1] (Th17 cells, 10 µM): 0.2449
- nDAG[FA15:0] (Th17 cells, 10 µM): 0.1819
- nDAG[FA16:0] (Th17 cells, 10 µM): 46.2571
- nDAG[FA16:1] (Th17 cells, 10 µM): 4.564
- nDAG[FA18:0] (Th17 cells, 10 µM): 12.8033
- nDAG[FA18:1] (Th17 cells, 10 µM): 21.7078
- nDAG[FA18:2] (Th17 cells, 10 µM): 2.36
- nDAG[FA18:3] (Th17 cells, 10 µM): 0.09864
- nDAG[FA20:0] (Th17 cells, 10 µM): 0.4502
- nDAG[FA20:1] (Th17 cells, 10 µM): 0.3304
- nDAG[FA20:2] (Th17 cells, 10 µM): 0.1753
- nDAG[FA20:3] (Th17 cells, 10 µM): 1.272
- nDAG[FA20:4] (Th17 cells, 10 µM): 0.4517
- nDAG[FA20:5] (Th17 cells, 10 µM): 0.03905
- nDAG[FA22:4] (Th17 cells, 10 µM): 0.08141
- nDAG[FA22:5] (Th17 cells, 10 µM): 0.2538
- nDAG[FA22:6] (Th17 cells, 10 µM): 0.7392
- nDCER (Th17 cells, 10 µM): 0.1046
- nDCER(14:0) (Th17 cells, 10 µM): 1.585
- nDCER(16:0) (Th17 cells, 10 µM): 30.1076
- nDCER(18:0) (Th17 cells, 10 µM): 3.38
- nDCER(18:1) (Th17 cells, 10 µM): 0.4226
- nDCER(20:0) (Th17 cells, 10 µM): 4.543
- nDCER(20:1) (Th17 cells, 10 µM): 0.06424
- nDCER(22:0) (Th17 cells, 10 µM): 7.184
- nDCER(22:1) (Th17 cells, 10 µM): 1.69
- nDCER(24:0) (Th17 cells, 10 µM): 25.6706
- nDCER(24:1) (Th17 cells, 10 µM): 24.1916
- nDCER(26:0) (Th17 cells, 10 µM): 0.1056
- nDCER(26:1) (Th17 cells, 10 µM): 1.0564
- nDCER[FA14:0] (Th17 cells, 10 µM): 1.585
- nDCER[FA16:0] (Th17 cells, 10 µM): 30.1076
- nDCER[FA18:0] (Th17 cells, 10 µM): 3.38
- nDCER[FA18:1] (Th17 cells, 10 µM): 0.4226
- nDCER[FA20:0] (Th17 cells, 10 µM): 4.543
- nDCER[FA20:1] (Th17 cells, 10 µM): 0.06424
- nDCER[FA22:0] (Th17 cells, 10 µM): 7.184
- nDCER[FA22:1] (Th17 cells, 10 µM): 1.69
- nDCER[FA24:0] (Th17 cells, 10 µM): 25.6706
- nDCER[FA24:1] (Th17 cells, 10 µM): 24.1916
- nDCER[FA26:0] (Th17 cells, 10 µM): 0.1056
- nDCER[FA26:1] (Th17 cells, 10 µM): 1.0564
- nFFA (Th17 cells, 10 µM): 4.287
- nFFA(12:0) (Th17 cells, 10 µM): 1.325
- nFFA(14:0) (Th17 cells, 10 µM): 3.367
- nFFA(14:1) (Th17 cells, 10 µM): 0.5145
- nFFA(15:0) (Th17 cells, 10 µM): 1.588
- nFFA(16:0) (Th17 cells, 10 µM): 33.0903
- nFFA(16:1) (Th17 cells, 10 µM): 1.393
- nFFA(17:0) (Th17 cells, 10 µM): 2.524
- nFFA(18:0) (Th17 cells, 10 µM): 24.6299
- nFFA(18:1) (Th17 cells, 10 µM): 8.8316
- nFFA(18:2) (Th17 cells, 10 µM): 4.005
- nFFA(18:3) (Th17 cells, 10 µM): 1.526
- nFFA(18:4) (Th17 cells, 10 µM): 0.3971
- phosphatidylethanolamine (PE) and phosphatidylcholine (PC) (not statistically significant): modestly increased
- lipid metabolites with differential levels (of 1300 lipid metabolites, p < 0.05): 39.6%
